From PMC2630848, “Acetylcholinesterase-Inhibiting Activity of Pyrrole Derivatives from a Novel Marine Gliding Bacterium, Rapidithrix thailandica” (Marine Drugs, 2008)

Target: acetylcholinesterase (AChE) (Tetronarce californica, UniProt P04058)
Experiment: Ellman colorimetric AChE assay with acetylthiocholine iodide and DTNB, […] nm, triplicate
Assay type: biochemical

Sequence of acetylcholinesterase (AChE) (P04058 22-564): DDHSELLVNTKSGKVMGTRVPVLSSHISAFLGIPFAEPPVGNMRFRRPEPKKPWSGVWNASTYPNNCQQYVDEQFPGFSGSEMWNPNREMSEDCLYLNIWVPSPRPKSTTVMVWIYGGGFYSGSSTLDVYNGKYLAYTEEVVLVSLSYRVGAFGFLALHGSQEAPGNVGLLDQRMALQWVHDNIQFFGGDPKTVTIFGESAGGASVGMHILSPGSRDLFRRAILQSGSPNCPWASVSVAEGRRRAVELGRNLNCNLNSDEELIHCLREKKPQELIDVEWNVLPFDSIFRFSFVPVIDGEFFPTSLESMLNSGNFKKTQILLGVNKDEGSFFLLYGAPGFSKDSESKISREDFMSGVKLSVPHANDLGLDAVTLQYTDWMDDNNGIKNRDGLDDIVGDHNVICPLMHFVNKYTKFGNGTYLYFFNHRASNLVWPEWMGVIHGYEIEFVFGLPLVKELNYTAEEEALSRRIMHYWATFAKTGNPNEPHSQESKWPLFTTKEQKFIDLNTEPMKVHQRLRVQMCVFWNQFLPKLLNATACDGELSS

Compound: Cc1nc2ccccc2c2cc[nH]c12 [compound 1, 4-Methyl-3H-pyrrolo[2,3-c]quinoline]
- IC50: 4.9 ± 0.9 µM
